Reference: PMC6648700 (Molecular pharmaceutics, 2018)

What was measured:
[1] = tested on: Nocardia asteroides (clinical isolate); assay: Cell viability IC50 screen; conditions: read-out: IC50 without a β-lactam, Nast
[2] = tested on: Mycobacterium abscessus PM3386 Δbla; assay type: cell-based; conditions: GSK690693 50 μM
[3] = tested on: Mycobacterium tuberculosis H37Rv ΔRD1 ΔpanCD strain mc^26030; assay type: cell-based; conditions: for activity against Mtb alone: auxotrophic Mtb H37Rv; for activity against Mtb with sub-MIC50 dose of meropenem: meropenem 1μg/mL with clavulonic acid
M. marinum = assay: Growth inhibition and β-lactam potentiation, M. marinum; assay type: cell-based, Mycobacterium marinum
[4] = in vivo; cited from earlier work
[5] = tested on: Mycobacterium chelonae (clinical isolate); assay: MIC shift, M. chelonae
[6] = tested on: Mycobacterium smegmatis MC^2155 WT; assay: Cell viability IC50 screen; conditions: for potentiation of IPA by isoniazid, Msmeg: isoniazid at four times less than the lethal concentration; for potentiation with a sub-MIC50 dose of meropenem to inhibit Msmeg growth: meropenem 1.25μg/mL
PknB 1–331 = PknB 1–331 (Mycobacterium tuberculosis, UniProt P9WI81); assay type: biochemical; conditions: at concentrations tested
Chain of PknB 1–331 (P9WI81 1-331): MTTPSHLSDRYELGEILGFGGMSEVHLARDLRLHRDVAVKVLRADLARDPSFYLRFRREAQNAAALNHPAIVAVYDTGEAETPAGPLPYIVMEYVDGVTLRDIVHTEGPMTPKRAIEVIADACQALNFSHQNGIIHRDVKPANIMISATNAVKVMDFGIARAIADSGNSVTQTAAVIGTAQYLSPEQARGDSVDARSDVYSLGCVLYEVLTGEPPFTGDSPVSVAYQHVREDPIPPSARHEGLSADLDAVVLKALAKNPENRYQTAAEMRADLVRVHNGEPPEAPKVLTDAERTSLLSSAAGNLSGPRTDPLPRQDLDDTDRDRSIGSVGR

SMILES	IC50 [1]	activity against Mtb alone [3]	activity against Mtb with sub-MIC50 dose of meropenem [3]	potentiation of IPA by isoniazid, Msmeg [6]	potentiation with a sub-MIC50 dose of meropenem to inhibit Msmeg growth [6]	other results
CCn1c(-c2nonc2N)nc2c(C#CC(C)(C)O)ncc(OCC3CCNCC3)c21 [GSK554170A]	24 to 100 µM	–	–	–	–	–
CCn1c(-c2nonc2N)nc2c(C#CC(C)(C)O)ncc(OC[C@H]3CCCNC3)c21 [GSK690693, 4-(2-(4-amino-1,2,5-oxadiazol-3-yl)-1-ethyl-7-{[(3S)-3-piperidinylmethyl]oxy}−1H-imidazo[4,5-c]pyridin-4-yl)-2-methyl-3-butyn-2-ol]	24 to 100 µM	not active	not active	did not potentiate	able to potentiate	potentiation of kanamycin, Mab [2]: no effect; potentiation of β-lactams, M. marinum (M. marinum; Fig. S7C): does not potentiate; activity alone, M. marinum growth (M. marinum; Fig. S7D): effective on its own; side-effects in phase I clinical trials [4]: only moderate side-effects; potentiation of meropenem, Mche ([5]; with 8 μg/mL clavulanate): two-fold; potentiation of meropenem, Mche ([5]; without clavulanate): did not see any potentiation
CCn1c(-c2nonc2N)nc2c(C#CC(C)(C)O)nc(OC[C@H](N)c3ccccc3)cc21 [GSK943949A]	24 to 100 µM	–	–	–	–	–
CCn1c(-c2nonc2N)nc2c(C#CC(C)(C)O)nc(O[C@@H](CN)c3ccccc3)cc21 [GSK1007102B]	24 to 100 µM	able to attenuate the growth	activity was shifted	did not potentiate	the most potent	–
CCn1c(-c2nonc2N)nc2cncc(CNC3CCNCC3)c21 [SB-747651A]	–	–	–	–	–	PknB inhibitory activity (PknB 1–331): no inhibitory activity
